In patent US9725490B2, “ERAP1-derived peptide and use thereof” (TOKUSHIMA UNIVERSITY, priority 2011, dated 2017):
Entries after “also recorded” stand apart in the source; their conditions may differ.

Experiments:
Type in all cases: cell-based, human
[1] = test system: MCF-7 cells; assay: Cell cycle FACS analysis, MCF-7; conditions: 10 μM ERAP1-peptide and/or 10 nM tamoxifen, 10 nM E2 24 hours
Procedure: FIG. 6-2 is a diagram illustrating that ERAP1-peptide treatment suppresses ERα-dependent cell proliferation of breast cancer cell lines. […] MCF-7 cells were treated with 10 μM ERAP1-peptide or 10 μM tamoxifen. Then, immediately, the cells were stimulated with 10 nM E2 for 24 hours. After the immobilization, the cells were stained with propidium iodide, and analyzed by flow cytometry.
FIG. 19 is a diagram illustrating the results of FACS analysis showing the effects of concomitant use of the ERAP1-peptide and tamoxifen on the cell cycle.
The cells were fixed with cold 70% ethanol, and stained with 20 μg/ml propidium iodide (Sigma) and 1 mg/ml ribonuclease A (Sigma), and analyzed with FACSCalibur (B D, Franklin Lakes, N.J., USA). The cell cycle was evaluated using CellQuest software (BD).
MCF-7 cells were treated with 10 μM ERAP1-peptide and/or 10 nM tamoxifen. Then, immediately, the cells were stimulated with 10 nM E2 for 24 hours. After the immobilization, the cells were stained with propidium iodide, and analyzed by flow cytometry.

[2] = test system: Akt, MAPK and ERα phosphorylation; assay: Phosphorylation of Akt, MAPK and ERα in tamoxifen-resistant MCF-7 cells
Procedure: FIG. 14 is a diagram illustrating the suppression effect of the ERAP1-peptide on tamoxifen-resistant MCF-7 cells. […] The tamoxifen-resistant MCF-7 cells were treated with the ERAP1-peptide in each concentration (0, 5 and 10 μM). Then, immediately, the cells were stimulated with 10 nM E2 for 24 hours.
MCF-7 cells and tamoxifen-resistant MCF-7 cells were seeded in 1×10^5/well in DMEM/F12 culture medium containing phenol red on a 24-well plate and stood in a CO2 incubator for 24 hours. Then, the culture medium was exchanged with DMEM/F12 culture medium containing 10% FBS, 1% penicillin/streptomycin and 1 μM tamoxifen, and not containing phenol red, and the cells were further pre-cultured for 24 hours. The supernatant was removed, and then 180 μl of […] ERAP1-peptide was added (final concentration: 10 μM), and subsequently 20 μl of 100 nM E2 was added (final concentration: 10 nM), and the mixture was reacted for 24 hours. The reaction solution was removed, and then 100 μl of SDS-sample buffer was added and the cells were lysed. The cells were subjected to boiling treatment at 95° C. for 5 minutes, and subjected to polyacrylic amide electrophoresis. Phosphorylations of Akt and MAPK were detected with anti-phosphorylation Akt (Ser473) (587F11) and anti-phosphorylation p44/42 MAP Kinase (Thr202/Tyr204) antibodies, and phosphorylation of ERα was detected with anti-phosphorylation ERα (Ser104/106), anti-phosphorylation ERα (Ser118), anti-phosphorylation ERα (Ser167), anti-phosphorylation ERα (Ser305) and anti-phosphorylation ERα (Tyr537) antibodies.

[3] = test system: ERAP1 expression; assay: ERAP1 expression, quantitative RT-PCR and Western, MCF-7; conditions: 10 μM peptide, time course
[4] = test system: ERα interaction with IGF-1Rβ, Shc, PI3K; Akt and MAPK phosphorylation; assay: Non-genomic activation route, immunoprecipitation/immunoblotting, MCF-7
Procedure: MCF-7 cells were treated with the ERAP1-peptide. Then, immediately, the cells were stimulated with 10 nM E2 for 24 hours. Then, the cytoplasm fraction was immunoprecipitated with anti-ERα antibody. […] MCF-7 cells were treated with the ERAP1-peptide. Then, immediately, the cells were stimulated with 10 nM E2 for 24 hours. Then the cytoplasm fraction was immunoprecipitated with anti-ERα antibody or anti-PHB2 antibody.
FIG. 10-2 is a diagram illustrating that the ERAP1-peptide regulates E2-induced non-genomic activation route via IGF-1Rβ and Shc. […] BT-474 cells were treated with the ERAP1-peptide and/or E2 for 24 hours. Then, the cytoplasm fraction was immunoprecipitated with anti-ERα antibody.
As described in the item of “Western blotting analysis”, the cells were lysed with a 0.1% NP-40 lysis buffer. The cell lysate was precleaned using normal IgG and rec-Protein G Sepharose 4B (Zymed, San Francisco, Calif., USA) at 4° C. for 3 hours. After centrifuge separation, the supernatant was incubated in the presence of an anti-ERAP1 antibody, an anti-PHB2 antibody and an anti-ERα antibody at 4° C. for 6 hours. Then, the supernatant was incubated in the presence of rec-Protein G Sepharose 4B at 4° C. for 1 hour, to precipitate an antigen-antibody complex. The immunoprecipitated protein complex was washed with a lysis buffer three times, and separated by SDS-PAGE. Then, Western blotting analysis was performed by the method described previously (Kim J W, et al. Cancer Sci. 2009; 100: 1468-78.).

CSCC[C@H](NC(=O)[C@H](CCC(N)=O)NC(=O)[C@H](CCCNC(=N)N)NC(=O)[C@H](CCCNC(=N)N)NC(=O)[C@H](CCCNC(=N)N)NC(=O)[C@H](CCCNC(=N)N)NC(=O)[C@H](CCCNC(=N)N)NC(=O)[C@H](CCCNC(=N)N)NC(=O)[C@H](CCCNC(=N)N)NC(=O)[C@H](CCCNC(=N)N)NC(=O)[C@H](CCCNC(=N)N)NC(=O)[C@H](CCCNC(=N)N)NC(=O)[C@@H](N)CCCNC(=N)N)C(=O)N[C@@H](CC(C)C)C(=O)N[C@@H](CO)C(=O)N[C@@H](CC(=O)O)C(=O)N[C@@H](CC(C)C)C(=O)N[C@H](C(=O)N[C@@H](CC(C)C)C(=O)N[C@@H](CCC(N)=O)C(=O)N[C@@H](CC(C)C)C(=O)N[C@@H](CCCNC(=N)N)C(=O)N[C@@H](CCC(N)=O)C(=O)N[C@@H](CCCNC(=N)N)C(=O)O)[C@@H](C)O [ERAP1-peptide]
cell cycle [1]: induced stop of the G1 phase; also recorded: increase of cells having stopped in the G1 phase
phosphorylation of ERα ([2]; Tam-R MCF-7, 10 μM peptide): all phosphorylation of ERα was also decreased
phosphorylations of Akt and MAPK ([2]; Tam-R MCF-7, tamoxifen alone or tamoxifen and E2): phosphorylations of Akt and MAPK were remarkably decreased
E2-dependent expression of ERAP1 [3]: temporally suppressed
binding of ERα and PI3K ([4]; cytoplasm fraction, 24 hours): inhibit the binding of ERα and PI3K
binding of ERα and Shc and of ERα and IGF-1Rβ ([4]; cytoplasm fraction, 24 hours): inhibited the binding of ERα and Shc and the binding of ERα and IGF-1Rβ
phosphorylation of Ser473 of Akt and phosphorylation of MAPK ([4]; time course to 24 hours): inhibited respectively within 3 hours after addition of the ERAP1-peptide, and the suppression was maintained even after 24 hours
